This is an account of results in patent US9249128B2 (priority 2010, dated 2016).

In this assay the target is T1, KIAA1363 (Homo sapiens, UniProt Q6PIU2).
T1 sequence (Q6PIU2 1-408): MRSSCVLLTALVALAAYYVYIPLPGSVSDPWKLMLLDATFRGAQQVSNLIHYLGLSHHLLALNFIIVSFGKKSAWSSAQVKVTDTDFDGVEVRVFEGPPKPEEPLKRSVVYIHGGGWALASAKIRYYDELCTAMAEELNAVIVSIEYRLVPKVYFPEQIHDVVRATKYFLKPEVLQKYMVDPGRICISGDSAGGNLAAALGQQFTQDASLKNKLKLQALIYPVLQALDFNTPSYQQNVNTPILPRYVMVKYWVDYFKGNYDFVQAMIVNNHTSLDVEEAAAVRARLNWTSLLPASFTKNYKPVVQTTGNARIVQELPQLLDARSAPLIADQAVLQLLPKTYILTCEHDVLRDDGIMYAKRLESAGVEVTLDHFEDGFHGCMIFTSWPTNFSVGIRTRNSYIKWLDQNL
In words: Gel-based competitive ABPP in PC3 cell proteomes, in vitro treatment. Also noted: PC3 cancer cells, which have high endogenous KIAA1363 levels; endogenous in cells; host or cells: PC3. The class given is biochemical. On the procedure:
Inhibitors were dissolved in DMSO and diluted into media or buffer prior to cell or proteome treatment, respectively. For in vitro treatment, final DMSO concentration was 4%. For in situ treatments of cells for ABPP, lipid measurements, migration, cell-survival, and invasion assays, 2×10^6 cells were seeded in 6 cm dishes (˜100% confluency) 24 h prior to inhibitor pre-treatment (in DMSO at 0.1% final concentration) in serum-free media (3 mL) for the designated time before harvesting cells for ABPP or lipid measurements or before the initiation of migration, cell-survival, and invasion assays.
For ABPP experiments, cell lysate and tissue proteomes were treated with 1 μM FP-rhodamine for 30 min at room temperature (50 μL total reaction volume) as described previously (Nomura et al., 2010). Reactions were quenched with one volume of standard 4×SDS/PAGE loading buffer (reducing), separated by SDS/PAGE (10% acrylamide), and visualized in-gel with a Hitachi FMBio IIe flatbed fluorescence scanner (MiraiBio). Inhibitors were preincubated prior (30 min or 4 h at 37° C. in vitro or in situ, respectively) to the addition of FP-rhodamine.

As for `CC(C)c1ccccc1OC(=O)NCCc1ccc2ccccc2c1` [JW480, 2-isopropylphenyl (2-(naphthalen-2-yl)ethyl)carbamate], for the setting “PC3 cells, also DU145 and LNCaP cells”, the “Selectivity for KIAA1363 by gel-based competitive ABPP” value is listed as “excellent selectivity”. The molecule also showed an IC50 (in vitro treatment) of 12 nM.

By IC50 is commonly meant the concentration needed to halve the response being measured. The low end stands for greater potency in that assay, the high end for weaker potency in that assay.
